Data as given in ChEMBL document CHEMBL1201862, “PubChem BioAssay data set” (2004).
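Test compounds were applied to cells in 96-well plates for 48 hours at 5 doses. The concentration for 50% growth inhibition is given as GI50.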 Active and inactive are the calls of the source. Cut-off read from the data, not from the text of the source: active = GI50 up to about 1.1 µM and inactive = higher.

Assays:
Test in all cases: NCI-60 cell line screen, 48 h
UACC-62 = tested on: UACC-62
HOP-62 = tested on: HOP-62
RXF 393 = tested on: RXF 393
CCRF-CEM = tested on: CCRF-CEM
T47D = tested on: T47D
HCT-116 = tested on: HCT-116
PC-3 = tested on: PC-3
COLO 205 = tested on: COLO 205
MDA-MB-435 = tested on: MDA-MB-435
OVCAR-3 = tested on: OVCAR-3
SK-MEL-5 = tested on: SK-MEL-5
U-251 = tested on: U-251
SK-MEL-28 = tested on: SK-MEL-28
SF-295 = tested on: SF-295
NCI-H226 = tested on: NCI-H226
NCI-H460 = tested on: NCI-H460
CAKI-1 = tested on: CAKI-1
Malme-3M = tested on: Malme-3M
SF-539 = tested on: SF-539
SNB-19 = tested on: SNB-19
DU-145 = tested on: DU-145
SW-620 = tested on: SW-620
SN12C = tested on: SN12C
SR = tested on: SR
LOX IMVI = tested on: LOX IMVI
SK-OV-3 = tested on: SK-OV-3
TK-10 = tested on: TK-10
MOLT-4 = tested on: MOLT-4
ACHN = tested on: ACHN
SF-268 = tested on: SF-268
OVCAR-8 = tested on: OVCAR-8
MCF7 = tested on: MCF7
M14 = tested on: M14
NCI-H522 = tested on: NCI-H522
BT-549 = tested on: BT-549
RPMI-8226 = tested on: RPMI-8226
HOP-92 = tested on: HOP-92
HCT-15 = tested on: HCT-15
OVCAR-4 = tested on: OVCAR-4
SK-MEL-2 = tested on: SK-MEL-2
Hs-578T = tested on: Hs-578T
786-0 = tested on: 786-0
OVCAR-5 = tested on: OVCAR-5
IGROV-1 = tested on: IGROV-1
EKVX = tested on: EKVX
UACC-257 = tested on: UACC-257
HT-29 = tested on: HT-29
NCI-H23 = tested on: NCI-H23
SNB-75 = tested on: SNB-75
UO-31 = tested on: UO-31
HL-60 = tested on: HL-60
MDA-MB-231 = tested on: MDA-MB-231
MDA-N = tested on: MDA-N
A498 = tested on: A498
HCC 2998 = tested on: HCC 2998
K562 = tested on: K562
KM12 = tested on: KM12
NCI/ADR-RES = tested on: NCI/ADR-RES
A549 = tested on: A549

Question: For `Nc1nc(Cl)c(N)c(NCC2(CO)CC(O)C2)n1` (configuration not stated), which GI50 (UACC-62) is on record?
Answer: > 100 µM (inactive)

Question: What about the GI50 (HOP-62) of the same compound?
Answer: > 100 µM (inactive)

Question: What about the GI50 (RXF 393) of the same compound?
Answer: > 100 µM (inactive)

Question: What about the GI50 (CCRF-CEM) of the same compound?
Answer: > 100 µM (inactive)

Question: And the GI50 (T47D)?
Answer: > 100 µM (inactive)

Question: What about the GI50 (HCT-116) of the same compound?
Answer: > 100 µM (inactive)

Question: What about the GI50 (PC-3) of the same compound?
Answer: > 100 µM (inactive)

Question: What about the GI50 (COLO 205) of the same compound?
Answer: > 100 µM (inactive)

Question: And the GI50 (MDA-MB-435)?
Answer: > 100 µM (inactive)

Question: What about the GI50 (OVCAR-3) of the same compound?
Answer: > 100 µM (inactive)

Question: And the GI50 (SK-MEL-5)?
Answer: > 100 µM (inactive)

Question: And the GI50 (U-251)?
Answer: > 100 µM (inactive)

Question: What about the GI50 (SK-MEL-28) of the same compound?
Answer: > 100 µM (inactive)

Question: What about the GI50 (SF-295) of the same compound?
Answer: > 100 µM (inactive)

Question: And the GI50 (NCI-H226)?
Answer: > 100 µM (inactive)

Question: And the GI50 (NCI-H460)?
Answer: > 100 µM (inactive)

Question: And the GI50 (CAKI-1)?
Answer: > 100 µM (inactive)

Question: And the GI50 (Malme-3M)?
Answer: > 100 µM (inactive)

Question: What about the GI50 (SF-539) of the same compound?
Answer: > 100 µM (inactive)

Question: What about the GI50 (SNB-19) of the same compound?
Answer: > 100 µM (inactive)

Question: And the GI50 (DU-145)?
Answer: > 100 µM (inactive)

Question: What about the GI50 (SW-620) of the same compound?
Answer: > 100 µM (inactive)

Question: What about the GI50 (SN12C) of the same compound?
Answer: > 100 µM (inactive)

Question: And the GI50 (SR)?
Answer: > 100 µM (inactive)

Question: And the GI50 (LOX IMVI)?
Answer: > 100 µM (inactive)

Question: And the GI50 (SK-OV-3)?
Answer: > 100 µM (inactive)

Question: What about the GI50 (TK-10) of the same compound?
Answer: > 100 µM (inactive)

Question: What about the GI50 (MOLT-4) of the same compound?
Answer: > 100 µM (inactive)

Question: And the GI50 (ACHN)?
Answer: > 100 µM (inactive)

Question: What about the GI50 (SF-268) of the same compound?
Answer: > 100 µM (inactive)

Question: What about the GI50 (OVCAR-8) of the same compound?
Answer: > 100 µM (inactive)

Question: And the GI50 (MCF7)?
Answer: > 100 µM (inactive)

Question: And the GI50 (M14)?
Answer: > 100 µM (inactive)

Question: And the GI50 (NCI-H522)?
Answer: > 100 µM (inactive)

Question: What about the GI50 (BT-549) of the same compound?
Answer: > 100 µM (inactive)

Question: And the GI50 (RPMI-8226)?
Answer: > 100 µM (inactive)

Question: What about the GI50 (HOP-92) of the same compound?
Answer: > 100 µM (inactive)

Question: What about the GI50 (HCT-15) of the same compound?
Answer: > 100 µM

Question: And the GI50 (OVCAR-4)?
Answer: > 100 µM (inactive)

Question: And the GI50 (SK-MEL-2)?
Answer: > 100 µM (inactive)

Question: What about the GI50 (Hs-578T) of the same compound?
Answer: > 100 µM (inactive)

Question: And the GI50 (786-0)?
Answer: > 100 µM (inactive)

Question: What about the GI50 (OVCAR-5) of the same compound?
Answer: > 100 µM (inactive)

Question: And the GI50 (IGROV-1)?
Answer: > 100 µM (inactive)

Question: And the GI50 (EKVX)?
Answer: > 100 µM (inactive)

Question: What about the GI50 (UACC-257) of the same compound?
Answer: > 100 µM (inactive)

Question: What about the GI50 (HT-29) of the same compound?
Answer: > 100 µM (inactive)

Question: What about the GI50 (NCI-H23) of the same compound?
Answer: > 100 µM (inactive)

Question: What about the GI50 (SNB-75) of the same compound?
Answer: > 100 µM (inactive)

Question: And the GI50 (UO-31)?
Answer: > 100 µM (inactive)

Question: What about the GI50 (HL-60) of the same compound?
Answer: > 100 µM (inactive)

Question: And the GI50 (MDA-MB-231)?
Answer: > 100 µM (inactive)

Question: What about the GI50 (MDA-N) of the same compound?
Answer: > 100 µM (inactive)

Question: And the GI50 (A498)?
Answer: 67.5 µM (inactive)

Question: What about the GI50 (HCC 2998) of the same compound?
Answer: 46.3 µM (inactive)

Question: What about the GI50 (K562) of the same compound?
Answer: > 100 µM (inactive)

Question: And the GI50 (KM12)?
Answer: > 100 µM (inactive)

Question: What about the GI50 (NCI/ADR-RES) of the same compound?
Answer: > 100 µM (inactive)

Question: And the GI50 (A549)?
Answer: > 100 µM (inactive)

Question: With `Cc1nc2ccc(S(=O)(=O)Nc3ccccn3)cc2c(=O)n1NS(=O)(=O)c1ccccn1` as the compound, how does the GI50 (UACC-62) read?
Answer: > 100 µM (inactive)

Question: And the GI50 (HOP-62)?
Answer: > 100 µM (inactive)

Question: And the GI50 (RXF 393)?
Answer: > 100 µM (inactive)

Question: What about the GI50 (CCRF-CEM) of the same compound?
Answer: > 100 µM (inactive)

Question: What about the GI50 (T47D) of the same compound?
Answer: > 100 µM (inactive)

Question: And the GI50 (HCT-116)?
Answer: > 100 µM (inactive)

Question: And the GI50 (PC-3)?
Answer: > 100 µM (inactive)

Question: And the GI50 (COLO 205)?
Answer: > 100 µM (inactive)

Question: And the GI50 (MDA-MB-435)?
Answer: > 100 µM (inactive)

Question: What about the GI50 (OVCAR-3) of the same compound?
Answer: > 100 µM (inactive)

Question: What about the GI50 (SK-MEL-5) of the same compound?
Answer: > 100 µM (inactive)

Question: What about the GI50 (U-251) of the same compound?
Answer: > 100 µM (inactive)

Question: And the GI50 (SK-MEL-28)?
Answer: > 100 µM (inactive)

Question: What about the GI50 (SF-295) of the same compound?
Answer: > 100 µM (inactive)

Question: And the GI50 (NCI-H226)?
Answer: > 100 µM (inactive)

Question: And the GI50 (NCI-H460)?
Answer: > 100 µM (inactive)

Question: And the GI50 (CAKI-1)?
Answer: > 100 µM (inactive)

Question: What about the GI50 (Malme-3M) of the same compound?
Answer: > 100 µM (inactive)

Question: What about the GI50 (SF-539) of the same compound?
Answer: > 100 µM (inactive)

Question: What about the GI50 (SNB-19) of the same compound?
Answer: > 100 µM (inactive)

Question: What about the GI50 (DU-145) of the same compound?
Answer: > 100 µM (inactive)

Question: What about the GI50 (SW-620) of the same compound?
Answer: > 100 µM (inactive)

Question: And the GI50 (SN12C)?
Answer: > 100 µM (inactive)

Question: What about the GI50 (SR) of the same compound?
Answer: > 100 µM (inactive)

Question: And the GI50 (LOX IMVI)?
Answer: > 100 µM (inactive)

Question: What about the GI50 (SK-OV-3) of the same compound?
Answer: > 100 µM (inactive)

Question: And the GI50 (TK-10)?
Answer: > 100 µM (inactive)

Question: And the GI50 (MOLT-4)?
Answer: > 100 µM (inactive)

Question: And the GI50 (ACHN)?
Answer: > 100 µM (inactive)

Question: What about the GI50 (SF-268) of the same compound?
Answer: > 100 µM (inactive)

Question: What about the GI50 (OVCAR-8) of the same compound?
Answer: > 100 µM (inactive)

Question: And the GI50 (MCF7)?
Answer: > 100 µM (inactive)

Question: What about the GI50 (M14) of the same compound?
Answer: > 100 µM (inactive)

Question: And the GI50 (NCI-H522)?
Answer: > 100 µM (inactive)

Question: What about the GI50 (BT-549) of the same compound?
Answer: > 100 µM (inactive)

Question: What about the GI50 (RPMI-8226) of the same compound?
Answer: > 100 µM (inactive)

Question: And the GI50 (HOP-92)?
Answer: > 100 µM (inactive)

Question: What about the GI50 (HCT-15) of the same compound?
Answer: > 100 µM

Question: And the GI50 (OVCAR-4)?
Answer: > 100 µM (inactive)

Question: What about the GI50 (SK-MEL-2) of the same compound?
Answer: > 100 µM (inactive)

Question: What about the GI50 (Hs-578T) of the same compound?
Answer: > 100 µM (inactive)

Question: What about the GI50 (786-0) of the same compound?
Answer: > 100 µM (inactive)

Question: What about the GI50 (OVCAR-5) of the same compound?
Answer: > 100 µM (inactive)

Question: And the GI50 (IGROV-1)?
Answer: > 100 µM (inactive)

Question: And the GI50 (EKVX)?
Answer: > 100 µM (inactive)

Question: And the GI50 (UACC-257)?
Answer: > 100 µM (inactive)

Question: And the GI50 (HT-29)?
Answer: > 100 µM (inactive)

Question: And the GI50 (NCI-H23)?
Answer: > 100 µM (inactive)

Question: And the GI50 (SNB-75)?
Answer: > 100 µM (inactive)

Question: And the GI50 (UO-31)?
Answer: > 100 µM (inactive)

Question: And the GI50 (HL-60)?
Answer: > 100 µM (inactive)

Question: What about the GI50 (MDA-MB-231) of the same compound?
Answer: > 100 µM (inactive)

Question: And the GI50 (MDA-N)?
Answer: > 100 µM (inactive)

Question: And the GI50 (A498)?
Answer: > 100 µM (inactive)

Question: What about the GI50 (HCC 2998) of the same compound?
Answer: > 100 µM (inactive)

Question: What about the GI50 (K562) of the same compound?
Answer: > 100 µM (inactive)

Question: What about the GI50 (KM12) of the same compound?
Answer: > 100 µM (inactive)

Question: And the GI50 (NCI/ADR-RES)?
Answer: > 100 µM (inactive)
